# Results as given in ChEMBL document CHEMBL6096702, “Discovery of a Novel p38α-MK2 Complex Inhibitor as a Potential Choice for Autoimmune Diseases” (J Med Chem, 2025).
# Test: Inhibition of N-terminal GST-tagged wildtype human P38alpha (4 to 152 residues) extracted from Escherichia coli/GST-tagged MK2 (unknown origin) assessed as reduction in HSP27 phosphorylation incubated for 2 hrs in presence of ATP and HSP27-FITC peptide by fluorescence polarization based IMAP assay
row,Compound,IC50
1,Cc1nn(-c2ccnc(C(C)(C)O)n2)cc1-n1c(C)cc(OCc2ncc(F)cc2F)c(Cl)c1=O,1300 nM
2,Cc1cnc(-c2ccnc(C(C)(C)O)n2)cc1-c1c(C)c(Cl)c(OCc2ncc(F)cc2F)c[n+]1[O-],> 10000 nM
3,Cc1cnc(-c2ccnc(C(C)(C)O)n2)c(F)c1-n1c(C)cc(O[C@@H](C)c2ncc(F)cc2F)c(C(F)F)c1=O,112 nM
4,Cc1cnc(-c2cccc(C(C)(C)O)c2F)c(C)c1-n1c(C)cc(O[C@@H](C)c2ncc(F)cc2F)c(Cl)c1=O,12.8 nM
5,Cc1cnc(-c2cc(C(C)(C)O)ccc2F)c(F)c1-n1c(C)cc(O[C@@H](C)c2ncc(F)cc2F)c(Cl)c1=O,61 nM
6,Cc1cnc(-c2cccc(C(C)(C)O)c2C)c(F)c1-n1c(C)cc(OCc2ncc(F)cc2F)c(Cl)c1=O,68 nM

# The next lines start with the values.
row,IC50,Compound
1,> 10000 nM,Cc1cc(OCc2ncc(F)cc2F)c(Cl)c(=O)n1C1=CCCN(c2ccnc(C(C)(C)O)n2)C1
2,143 nM,Cc1cnc(-c2ccnc(C(C)(C)O)n2)c(F)c1-n1c(C)cc(O[C@@H](C)c2ncc(F)cc2F)c(C=O)c1=O
3,92 nM,Cc1cnc(-c2ccnc(C(C)(C)O)n2)c(F)c1-n1c(C)cc(O[C@@H](C)c2ncc(F)cc2F)c(C(C)C)c1=O
4,15.5 nM,Cc1cnc(-c2cccc(C(C)(C)O)c2F)cc1-n1c(C)cc(O[C@@H](C)c2ncc(F)cc2F)c(C)c1=O

# Test: Inhibition of N-terminal GST-tagged wildtype human P38alpha (4 to 152 residues) extracted from Escherichia coli/GST-tagged PRAK (unknown origin) assessed as reduction in HSP27 phosphorylation incubated for 2 hrs in presence of ATP and HSP27-FITC peptide by fluorescence polarization based IMAP assay
row,IC50,Compound
1,1400 nM,Cc1cnc(-c2cccc(C(C)(C)O)c2F)c(C)c1-n1c(C)cc(O[C@@H](C)c2ncc(F)cc2F)c(Cl)c1=O

# Test: Selectivity ratio of IC50 for inhibition of N-terminal GST-tagged wildtype human P38alpha (4 to 152 residues) extracted from Escherichia coli/GST-tagged PRAK (unknown origin) to IC50 for inhibition of N-terminal GST-tagged wildtype human P38alpha (4 to 152 residues) extracted from Escherichia coli/GST-tagged MK2 (unknown origin)
row,Ratio IC50,Compound
1,109,Cc1cnc(-c2cccc(C(C)(C)O)c2F)c(C)c1-n1c(C)cc(O[C@@H](C)c2ncc(F)cc2F)c(Cl)c1=O
